Measured values as given in the supplement of paper PMC11451515.

System: SEM cells
Assay: cell viability relative to DMSO control; higher = less cytotoxic
Conditions: 48 h
Summary of the method: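 NOMO1 or SEM cells were plated at 500 cells/well and P12-Ichikawa cells at 1000 cells/well in 1536-well plates (5 μl), after each leukemia line had been adapted for at least four passages in each medium. Pin dosing delivered library compounds in DMSO at 11 threefold concentrations, 47 μM to 0.79 nM. CellTiter-Glo One luminescence was read after 48 h at 37°C. Viability is reported as a per-plate percentage of DMSO wells, with cell-free wells as background.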

[1] = HPLM + 10% dialyzed FBS, 0.000781 µM
[2] = HPLM + 10% dialyzed FBS, 0.00234 µM
[3] = HPLM + 10% dialyzed FBS, 0.00702 µM
[4] = HPLM + 10% dialyzed FBS, 0.0211 µM
[5] = HPLM + 10% dialyzed FBS, 0.0632 µM
[6] = HPLM + 10% dialyzed FBS, 0.19 µM
[7] = HPLM + 10% dialyzed FBS, 0.569 µM
[8] = HPLM + 10% dialyzed FBS, 1.71 µM
[9] = HPLM + 10% dialyzed FBS, 5.12 µM
[10] = HPLM + 10% dialyzed FBS, 15.4 µM
[11] = HPLM + 10% dialyzed FBS, 46.1 µM
[12] = RPMI 5 mM glucose + 10% FBS, 0.000781 µM
[13] = RPMI 5 mM glucose + 10% FBS, 0.00234 µM
[14] = RPMI 5 mM glucose + 10% FBS, 0.00702 µM
[15] = RPMI 5 mM glucose + 10% FBS, 0.0211 µM
[16] = RPMI 5 mM glucose + 10% FBS, 0.0632 µM
[17] = RPMI 5 mM glucose + 10% FBS, 0.19 µM
[18] = RPMI 5 mM glucose + 10% FBS, 0.569 µM
[19] = RPMI 5 mM glucose + 10% FBS, 1.71 µM
[20] = RPMI 5 mM glucose + 10% FBS, 5.12 µM
[21] = RPMI 5 mM glucose + 10% FBS, 15.4 µM
[22] = RPMI 5 mM glucose + 10% FBS, 46.1 µM
[23] = RPMI 5 mM glucose + 10% dialyzed FBS, 0.000781 µM
[24] = RPMI 5 mM glucose + 10% dialyzed FBS, 0.00234 µM
[25] = RPMI 5 mM glucose + 10% dialyzed FBS, 0.00702 µM
[26] = RPMI 5 mM glucose + 10% dialyzed FBS, 0.0211 µM
[27] = RPMI 5 mM glucose + 10% dialyzed FBS, 0.0632 µM
[28] = RPMI 5 mM glucose + 10% dialyzed FBS, 0.19 µM
[29] = RPMI 5 mM glucose + 10% dialyzed FBS, 0.569 µM
[30] = RPMI 5 mM glucose + 10% dialyzed FBS, 1.71 µM
[31] = RPMI 5 mM glucose + 10% dialyzed FBS, 5.12 µM
[32] = RPMI 5 mM glucose + 10% dialyzed FBS, 15.4 µM
[33] = RPMI 5 mM glucose + 10% dialyzed FBS, 46.1 µM

SMILES	cell viability [1] [%]	cell viability [2] [%]	cell viability [3] [%]	cell viability [4] [%]	cell viability [5] [%]	cell viability [6] [%]	cell viability [7] [%]	cell viability [8] [%]	cell viability [9] [%]	cell viability [10] [%]	cell viability [11] [%]	cell viability [12] [%]	cell viability [13] [%]	cell viability [14] [%]	cell viability [15] [%]	cell viability [16] [%]	cell viability [17] [%]	cell viability [18] [%]	cell viability [19] [%]	cell viability [20] [%]	cell viability [21] [%]	cell viability [22] [%]	cell viability [23] [%]	cell viability [24] [%]	cell viability [25] [%]	cell viability [26] [%]	cell viability [27] [%]	cell viability [28] [%]	cell viability [29] [%]	cell viability [30] [%]	cell viability [31] [%]	cell viability [32] [%]	cell viability [33] [%]
CC1(C)CCC(=C(CN2CCN(CC2)C3=CC=C(C=C3)C(=O)N[S+]([O-])(=O)C4=CC(=C(N[C@H](CCN5CCOCC5)CSC6=CC=CC=C6)C=C4)[S+]([O-])(=O)C(F)(F)F)\C1)/C7=CC=C(Cl)C=C7	124	124	126	106	80.9	18.3	11.3	8.83	8.56	7.32	5.38	85.5	108	95.9	82.8	42.1	19.6	8.77	6.49	5.65	5.78	4.31	111	135	100	102	49.6	21	9.94	6.79	6.8	5.99	4.42
C[S+](=O)([O-])N(Cc1ccco1)CC(O)Cn1c2ccccc2c2ccccc21 (stereo not drawn)	106	88.5	100	100	99.5	98	92.8	97.6	55.4	56.5	18.5	115	113	127	119	122	116	106	109	63.3	59.1	10.7	91.8	99.5	108	96.7	102	106	91	78.4	46.3	35.9	8.62
CO[C@H]1C[C@@H]2CC[C@@H](C)[C@@](O)(O2)C(=O)C(=O)N2CCCC[C@H]2C(=O)O[C@H]([C@H](C)C[C@@H]2CC[C@@H](OC(=O)C(C)(CO)CO)[C@H](OC)C2)CC(=O)[C@H](C)/C=C(\C)[C@@H](O)[C@@H](OC)C(=O)[C@H](C)C[C@H](C)/C=C/C=C/C=C/1C	80.2	93.3	88	77.7	76.5	74.5	64.7	55.4	57.7	49.1	41.6	71.2	78.2	70.1	61.6	60.5	56.3	57.7	52.4	50.5	27.3	15.7	87.4	97.1	91.2	73.1	84.6	83.1	64.4	61.8	67.4	58.4	23.2
O=C(/C=C/c1cccc([S+](=O)([O-])Nc2ccccc2)c1)NO	113	119	122	129	124	75.6	58.4	26.4	12.2	8.53	8.48	106	150	124	120	118	81.1	53	26.7	10.6	8.84	8.83	95.9	123	120	113	128	83.6	52	20.9	9.84	8.65	8.77
OC[C@H](Cc1ccccc1)Nc1nc(Oc2ccc3c(c2)CCC3)nc2c1ncn2Cc1ccc(-c2ccccc2)cc1	90.7	101	98.5	107	108	78.4	105	99.2	103	80.3	62.9	85.3	85.9	91.7	93.8	89.5	89.2	95	97.9	94.7	80.7	76.7	80	97.8	94.3	89.5	92.4	89.2	100	101	88.5	84.4	69.9
CC(=O)OCC(=O)[C@@]12\N=C(C)/O[C@@H]1C[C@H]3[C@@H]4CCC/5=C/C(=O)/C=C\[C@]5(C)[C@H]4[C@@H](O)C[C@]23C	75.3	85.5	87.8	85.1	68	97	97.8	100	92.5	90.1	24.9	86.6	103	91.5	102	66.3	109	97.9	113	86.9	86.6	18.2	101	95.2	107	106	80.7	104	105	115	86.8	79.8	19.4
CN1CCC(CC1)COC2=CN=C(N=C2)C3=CC(=CC=C3)CN4/N=C(\C=C/C4=O)C5=CC(=CC=C5)C#N	78.8	105	98	102	112	117	108	104	107	89.9	92.7	67.6	87.1	85.4	66.2	67.5	75.6	79.9	74.7	66.5	74.9	73.2	69.8	103	110	114	99.2	91.4	115	104	106	87.3	105
CC1=C(C=CC=C1)N2\C(=N/C3=C(C(=CC=C3)C)C2=O)C[N]4N=CC5=C4N=CN=C5N	99.5	117	119	128	124	128	121	123	125	117	121	100	124	141	113	113	136	135	135	124	131	119											
COC[C@@H](NC(C)=O)C(=O)NCc1ccccc1	117	116	118	118	112	119	124	105	100	120	111	115	111	118	123	99.7	115	99.9	121	90.3	103	116	103	101	102	96.7	99.4	131	106	105	90	86.7	96.9
CCOC(=O)N1CCN(/[N+]([O-])=N/Oc2ccc([N+](=O)[O-])cc2[N+](=O)[O-])CC1	64.4	70.7	60.1	77.6	76	94.4	85.7	73.8	42.5	22.4	14	70.6	84.9	56.8	91.9	93.9	94.9	88.8	81.5	40.7	13.2	8.13	77.3	91.6	72.5	88.2	89	86.2	102	78.2	43.6	16.7	8.98
C\C1=C\C(=O)C2=C(C=CC=C2)C1=O	95.9	110	102	109	126	123	106	114	111	96.1	80.4	104	101	113	111	113	106	101	89.2	95.3	95.9	59.9	94.7	102	114	114	112	111	117	111	84.3	71.3	50.6
O=C(CO)N1CCC(c2n[nH]c(-c3ccc(Cl)cc3)c2-c2ccncn2)CC1	102	119	119	112	110	104	98.7	101	75.6	64.9	31	114	128	123	127	107	123	109	106	85.3	49.4	16	131	108	108	141	110	119	128	100	79.7	51.5	20.1
Cc1cccc(C)c1OCC(=O)N[C@@H](Cc1ccccc1)[C@@H](O)C[C@H](Cc1ccccc1)NC(=O)[C@H](C(C)C)N1CCCNC1=O	80.3	94.2	86.7	96.4	100	81.4	85.6	76	78.5	65.4	39	97.7	94.2	102	94.8	108	103	95.9	90.9	79.6	77.1	36.7	79.8	101	93.7	102	104	100	107	104	85.5	69.1	31.2
